Measurements reported in patent publication US9387206B2, “Therapeutic approaches for treating Alzheimer's disease” (PHARNEXT, priority 2009, dated 2016).

Legend:
[1] = test system: rat primary cortical neurons; test: LDH release, human Aβ1-42 toxicity on rat primary cortical cells; type: cell-based; settings: 0.32 nM alone; Aβ1-42 2.5 μM
Procedure: Primary rat cortical neurons are cultured as described previously.
Briefly, Aβ1-42 peptide was reconstituted in defined culture medium at 40 μM (mother solution) and was slowly shacked at +37° C. for 3 days in the dark for aggregation. The control medium was prepared in the same conditions.
After 10 days of neuron culture, the drug was solved in culture medium (+0.1% DMSO) and then pre-incubated with neurons for 1 hour before the Aβ1-42 application (in a final volume per culture well of 100 μl). […] Cortical neurons were intoxicated for 24 hours. Three separate cultures were performed per condition, 6 wells per condition.
Estradiol-β at 100 and 150 nM were used as a reference test compound and BDNF at 50 ng/ml was used as a positive control. Three separate cultures were performed per condition, […].
Estradiol-β and BDNF were solved in culture medium and pre-incubated for 1 h before the aggregated amyloid-β1-42 application.
Lactate Dehydrogenase (LDH) Activity Assay
This colorimetric assay for the quantification of cell toxicity is based on the measurement of lactate dehydrogenase (LDH) activity released from the cytosol of dying cells into the supernatant.
All values are expressed as mean±s.e.mean of the 3 cultures (n=6 per condition). Statistical analyses were done on the different conditions (ANOVA followed by the Dunnett's test when it was allowed, Statview software version 5.0).

[2] = test system: rat primary cortical neurons; test: Neurite outgrowth in beta-amyloid (Aβ25-35) intoxicated rat primary cortical neuron culture; type: cell-based; settings: Aβ25-35 20 μM, 2 days; drug added 1 hour before
[3] = test system: NGF-differentiated PC12 cells; test: MTT viability of NGF-differentiated PC12 after Aβ25-35 intoxication; type: cell-based, rat; settings: Aβ25-35 10 μM, 24 hours, drug added 1 hour before
Procedure: PC12 (Pheochromocytoma Rat, ATCC ref: CRL-1721) cells from [NT] CRL-1721) were rapidly thawed in 37° C. water. The supernatant was immediately put in 9 ml of a PC12 proliferation medium containing Dulbecco's modified Eagle's medium DMEM-F12 (Pan Biotech ref: P04-41450) with 15% heat-inactivated horse serum (Invitrogen ref: 16050-130), 2.5% of fetal bovine serum (FBS; Invitrogen ref: 16000-036), 1% of Penicillin 10,000 U/ml and Streptomycin 10 mg/ml (PS; Pan Biotech ref: P06-07100) and 1% of L-glutamine 200 mM (Pan Biotech ref: P04-80100). Cells were centrifuged (800 rounds/min, 4° C. for 5 min) and added in 5 ml PC12 proliferation medium, viable cells were counted with a Malassez cell using the […] exclusion test (Sigma). Then the cells were seeded at 3.10^4 cells per cm^2 in PC12 proliferation medium in 75 cm^2 plastic flasks (Greiner Ref: 658175) precoated with poly-L-lysine (10 μg/ml, Sigma Ref: P2636). Medium was changed every other day. After 3 days of culture, when cells reached 80% of confluence, they were washed in HBSS without calcium and magnesium (Pan Biotech Ref: […] P10-023100). The enzymatic reaction was stopped with PC12 proliferation medium added by 0.5 mg/ml of DNAse 1 grade 2 (Pan Biotech Ref: 760-37780100). […]

[4] = test system: rat primary cortical neurons; test: LDH release in Aβ25-35 intoxicated rat primary cortical neuron culture; type: cell-based; settings: Aβ25-35 20 μM, 2 days; drug added 1 hour before
Procedure: Primary rat cortical neurons are cultured as described by Singer et al., 1999. Briefly pregnant female rats of 15 days gestation are killed by cervical dislocation (Rats Wistar; Janvier) and the foetuses removed from the uterus. The cortexes are removed and placed in ice-cold medium of Leibovitz (L15; Invitrogen) containing 1% of Penicillin-Streptomycin (PS; Invitrogen) and 1% of bovine serum albumin (BSA; Sigma). Cortexes are dissociated by trypsinisation for 20 min at 37° C. (Trypsin EDTA 1×; Invitrogen) diluted in PBS without calcium and magnesium. The reaction is stopped by the addition of Dulbecco's modified Eagle's medium (DMEM; Invitrogen) containing DNAase I grade II (0.1 mg/ml; Roche Diagnostics) and 10% of foetal calf serum (FCS; Invitrogen). Cells are then mechanically dissociated by 3 passages through a 10 ml pipette. Cells are then centrifuged at 180×g for 10 min at 10° C. […] Viable cells are counted in a Neubauer cytometer using the trypan blue exclusion test. Cells are seeded at a density of 30,00-cells/well in 96-well plates (wells are pre-coated with poly-L-lysine (10 μg/ml; […] After 6 days of culture, cells are incubated with drugs (5 concentrations). After 1 hour, cells are intoxicated by 20 μM of β-amyloid (25-35; Sigma) in defined medium without BDNF but together with drugs. Cortical neurons are intoxicated for 2 days. After 2 days of culture, the supernatant is collected and analyzed with the Cytotoxicity Detection Kit (LDH, Roche Applied Sciences). This colorimetric assay for the quantification of cell death is based on the measurement of lactate dehydrogenase (LDH) activity released from the cytosol of damaged cells into the supernatant. The optic density (DO) is assessed by spectrophotometer at 492 nm wavelength by a multiscan apparatus (Thermo, Ref Ascent). […] Two days after this incubation, LDH release in the culture medium is quantified, reflecting the level of cell death.

Compound: CC(=O)NCCCS(=O)(=O)O [Acamprosate]
- Effect on Aβ1-42 intoxication, LDH release, drug alone [1]: no significant effect
- Prevention of Aβ25-35 intoxication, neurite outgrowth (neurite length) [2]: significantly prevented

Compound: CCCNC(C)C(=O)Nc1ccccc1C (stereo not drawn) [Prilocain, Prilocaine]
- Prevention of Aβ25-35 intoxication, cell viability (MTT) [3]: significantly prevented
- Prevention of Aβ25-35 intoxication, cell viability (MTT) ([3]; listed as prilocaine): strong neuroprotective effect

Compound: NS(=O)(=O)Cc1noc2ccccc12 [Zonisamide]
- Prevention of Aβ25-35 intoxication, LDH release [4]: significantly prevented
- Prevention of Aβ25-35 intoxication, neurite outgrowth (neurite length) [2]: significantly prevented
